“Also recorded” adds a separate entry of the source.
Columns and labels:
Type in all cases: in vivo
MRL-(Fas)lpr mice [1] = assay: Intravenous recombinant Cat-S injection: albuminuria and glomerular ultrastructure (TEM); conditions: 10 µg recombinant Cat-S i.v.
Procedure: (§1) Four-week-old female MRL-(Fas)lpr mice were purchased from Harlan Winkelmann (Borchen, Germany) and kept under pathogen-free conditions in a 12 hour light and dark cycle with free access to food and water. All animal experiments were performed in accordance with the European protection laws of animal welfare, and with approval by the local government authorities Regierung von Oberbayern (reference number: 55.2.1-54-2532.2-11-12). At 11 or 15 weeks of age only mice with proteinuria (Albustix, Bayer AG, Leverkusen, Germany) were randomized into five different groups (n = 10) receiving different medicated diets: Three groups were fed with chow mixed with either 3, 10 or 30 mg/kg/day RO5459072, another group’s chow was mixed with 100 mg/kg/day mycophenolate mofetil (MMF), and one group received a standard diet (vehicle). The dose of MMF was chosen according to several studies reporting strong efficacy on SLE and lupus nephritis in MRL-(Fas)lpr mice[24]–[26]. […] At the age of 19 weeks all mice were sacrificed by cervical dislocation. Blood and urine samples were collected at different time points as indicated. In other experiments 7 week old female MRL-(Fas)lpr mice were randomized into three groups (n = 3) to receive a single intravenous injection of 10 µg sterile recombinant Cat-S and one group receiving vehicle (100 µl sterile PBS). One of the Cat-S groups was pretreated with 30 mg/kg/day RO5459072 starting one week prior to Cat-S injection; another group was pretreated with a total of four daily intra-peritoneal injections of the PAR-2 inhibitor GB83 (10 mg/kg).
Urinary albumin/creatinine ratios were determined using the Mouse Albumin ELISA Quantitation set (Bethyl Laboratories, Montgomery, TX) and the Creatinine FS kit (DiaSys Diagnostic Systems, Holzheim, Germany)[44]. BUN levels were determined in plasma samples using a Urea FS kit (DiaSys Diagnostic Systems). Mouse IgM, IgG and its isotypes IgG1, IgG2a and IgG2b plasma levels were measured using ELISA Sets (Bethyl Laboratories) at a plasma dilution of 1:1,000 to 1:100,000. Double-stranded DNA IgG and IgM antibodies were quantified as described. Briefly, 96 well Nunc-Immuno plates (Thermo Fisher Scientific, Roskilde, Denmark) were coated with poly-L-lysine (1:1 diluted with PBS) and incubated for two hours. […] Absorbance was measured at 450 nm using a Tecan Microplate Reader (Biotek, Winnoski, VT). Indirect immunofluorescence was used to quantify ANA in mouse plasma. […]
Mouse kidney tissue was fixed in 2% paraformaldehyde/2% glutaraldehyde and 0.1M sodium phosphate buffer (pH 7.4) for 24 hours and processed as described. Samples were analyzed with a 1200EX electron microscope (JEOL, Tokyo, Japan).

MRL-(Fas)lpr mice [2] = assay: Experimental SLE and lupus nephritis, treatment week 11 to 19
Procedure: as §1
(§2) Kidney tissue samples were collected from all mice and fixed overnight in 4% buffered formalin. Subsequently the fixed tissue samples were embedded in paraffin and cut into 4 µm thick serial sections. Kidney paraffin sections were stained with periodic acid-Schiff (PAS) reaction using standardized protocols as described. Scoring of lupus nephritis activity and chronicity indices was performed according to human lupus nephritis, [43]. Methenamine silver staining was performed on paraffin embedded kidney sections and semiquantitatively scored form 0–3 by a blinded observer. For immunostaining the following primary antibodies were used: anti-mouse CD3 (Abcam, Cambridge, UK), complement C3c (Biobyt Ltd, Cambridge, UK), CD31 (Dianova GmbH, Hamburg, Germany), WT1 (Santa Cruz Biotechnology, Dallas, Texas) and nephrin (Acris Antibodies, San Diego, CA). The immunostaining for C3c and CD31 were analyzed using the ImageJ software by measuring positively stained area and dividing it by the total area of the glomerulus and reported as percentage of +ve area. Sections stained for WT1/nephrin and CD3 were evaluated by counting positive cells per glomerulus. All the morphometric analysis were carried out in a blinded fashion.
(§3) Urinary albumin/creatinine ratios were determined using the Mouse Albumin ELISA Quantitation set (Bethyl Laboratories, Montgomery, TX) and the Creatinine FS kit (DiaSys Diagnostic Systems, Holzheim, Germany)[44]. BUN levels were determined in plasma samples using a Urea FS kit (DiaSys Diagnostic Systems). Mouse IgM, IgG and its isotypes IgG1, IgG2a and IgG2b plasma levels were measured using ELISA Sets (Bethyl Laboratories) at a plasma dilution of 1:1,000 to 1:100,000. Double-stranded DNA IgG and IgM antibodies were quantified as described. Briefly, 96 well Nunc-Immuno plates (Thermo Fisher Scientific, Roskilde, Denmark) were coated with poly-L-lysine (1:1 diluted with PBS) and incubated for two hours. After washing the plates, the plates were coated with 1 µg/ml mouse tail dsDNA sparing the wells for standards, which were coated with anti-mIgG and anti-mIgM (Bethyl Laboratories). The standard curve was fixed from purified mIgG and mIgM (Bethyl Laboratories). The plasma samples were diluted 1:1,000 and added into the wells. After 1 h the assay was developed using HRP-labelled goat anti-mIgG and anti-mIgM and TMB substrate (BD Bioscience, San Diego, CA). […]

MRL-(Fas)lpr mice [3] = assay: Experimental lupus nephritis, late onset of treatment week 15 to 19; conditions: late onset week 15-19
Procedure: To further assess the potency of Cat-S inhibition to control advanced lupus nephritis we performed identical experiments with the highest dose of RO5459072 and MMF, which were not initiated before week 15 of age and continued for only 4 weeks and terminated again at week 19.
as §1, §2
as §3, with “Laboratories).” for “Laboratories). The standard curve was fixed from purified mIgG and mIgM (Bethyl Laboratories). The plasma samples were diluted 1:1,000 and added into the wells. After 1 h the assay was developed using HRP-labelled goat anti-mIgG and anti-mIgM and TMB substrate (BD Bioscience, San Diego, CA).”

Structure (SMILES)	Cat-S-induced albuminuria (MRL-(Fas)lpr mice [1]; 30 min, RO5459072 30 mg/kg/day pretreatment, GB83 10 mg/kg i.p.)	Cat-S-induced glomerular endothelial cell injury (TEM) (MRL-(Fas)lpr mice [1]; 24 h)	food intake or body weight between groups (MRL-(Fas)lpr mice [2]; medicated diets, throughout the study period)	intrarenal mRNA expression of IL-6, MCP-1/CCL2, RANTES/CCL5 and CXCL2 (MRL-(Fas)lpr mice [2]; real time PCR, kidney)	intrarenal mRNA expression of TNF-α, IFN-γ and SDF-1/CXCL12 (MRL-(Fas)lpr mice [2]; real time PCR, kidney)	blood urea nitrogen (BUN) over time (MRL-(Fas)lpr mice [2]; week 11-19)	total levels of plasma IgM (MRL-(Fas)lpr mice [2]; week 11-19, ELISA)	plasma dsDNA IgG levels (IgG autoantibodies) (MRL-(Fas)lpr mice [2]; week 11-19, RO5459072 highest dose, MMF 100 mg/kg/day, ELISA)	spleen CD11c+/CD11b+/MHCII+ antigen-presenting cells (MRL-(Fas)lpr mice [2]; week 11-19, flow cytometry)	integrity of the glomerular vasculature (CD31 staining) (MRL-(Fas)lpr mice [2]; week 19)	anti-dsDNA IgM (MRL-(Fas)lpr mice [3])	lupus nephritis disease chronicity index (MRL-(Fas)lpr mice [3])	plasma IgM levels (MRL-(Fas)lpr mice [3])	proteinuria and BUN at week 19 compared to control mice (MRL-(Fas)lpr mice [3])	plasma IgG and its isotypes and anti-dsDNA IgG (MRL-(Fas)lpr mice [3]; highest dose of RO5459072, MMF)
CC[C@H](C)[C@H](NC(=O)[C@H](CC1CCCCC1)NC(=O)c1ccno1)C(=O)N1CCC2(CCc3ccccc32)CC1 [GB83, reference compound]	completely prevented; also recorded: entirely blocked	completely prevented	–	–	–	–	–	–	–	–	–	–	–	–	–
COc1c(C)c2c(c(O)c1C/C=C(\C)CCC(=O)OCCN1CCOCC1)C(=O)OC2 [MMF, mycophenolate mofetil, reference compound]	–	–	no significant difference	suppressed	remained unaffected	prevented the progressive increase	suppressed plasma IgM levels below baseline	does not reduce	suppressed	improved	did not affect	failed to significantly suppress	trend toward lower	significantly reduced	had no effect
